The target of this test is T1, full length human Androgen Receptor (AR) (Homo sapiens, UniProt P10275).
T1 construct: transiently transfected in T225 cm^2 flasks with a full length human Androgen Receptor (AR) cDNA; expressed in transfected cells; host or cells: CV-1 cells (ATCC CCL-70), transiently transfected with AR cDNA in pcDNA3 and ARE-luciferase in pGL3
T1 sequence (P10275 1-920): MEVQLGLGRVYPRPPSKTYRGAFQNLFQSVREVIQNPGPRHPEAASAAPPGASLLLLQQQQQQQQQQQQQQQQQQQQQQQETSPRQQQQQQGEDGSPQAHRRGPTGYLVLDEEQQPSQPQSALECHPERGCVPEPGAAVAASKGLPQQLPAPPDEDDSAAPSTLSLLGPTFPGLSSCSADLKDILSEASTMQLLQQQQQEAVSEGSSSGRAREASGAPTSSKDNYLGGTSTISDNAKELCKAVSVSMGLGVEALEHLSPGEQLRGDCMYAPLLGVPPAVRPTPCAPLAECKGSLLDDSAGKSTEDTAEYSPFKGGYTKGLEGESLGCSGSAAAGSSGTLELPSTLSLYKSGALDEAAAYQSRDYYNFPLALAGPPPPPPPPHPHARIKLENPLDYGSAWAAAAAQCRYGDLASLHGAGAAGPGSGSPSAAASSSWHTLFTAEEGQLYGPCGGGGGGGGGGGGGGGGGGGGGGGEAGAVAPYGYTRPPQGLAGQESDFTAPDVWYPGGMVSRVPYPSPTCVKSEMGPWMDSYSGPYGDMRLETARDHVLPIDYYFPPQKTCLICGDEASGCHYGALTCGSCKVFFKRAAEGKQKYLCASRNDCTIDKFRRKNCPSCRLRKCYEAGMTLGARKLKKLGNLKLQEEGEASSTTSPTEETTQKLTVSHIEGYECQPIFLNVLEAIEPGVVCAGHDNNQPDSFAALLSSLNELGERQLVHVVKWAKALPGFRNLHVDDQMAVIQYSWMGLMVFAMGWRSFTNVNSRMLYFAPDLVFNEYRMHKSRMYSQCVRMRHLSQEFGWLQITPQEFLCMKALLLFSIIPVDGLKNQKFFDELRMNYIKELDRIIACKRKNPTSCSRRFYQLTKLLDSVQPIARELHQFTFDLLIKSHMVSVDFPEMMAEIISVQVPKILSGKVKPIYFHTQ
The experiment in a line: Androgen Receptor-Mediated Transcriptional Assay (ARE-luciferase reporter in transiently transfected CV-1 cells). It counts as cell-based. On the procedure: Androgen Receptor-Mediated Transcriptional Assay Summary
CV-1 cells (American Tissue Culture Collection cat# CCL-70) were expanded in Growth Media and transiently transfected in T225 cm^2 flasks with a full length human Androgen Receptor (AR) cDNA in the pcDNA3 expression vector and a human Androgen Response Element (ARE)-luciferase cDNA in the pGL3 vector (both from Invitrogen). DNA (μg) and Lipofectamine (μl) at a ratio of 1:3 were incubated with the cells in a total volume of 55 mL Basal Media for 4 hours. Cells were harvested by trypsinization and frozen back (−150° C. cryomed) at a concentration of 4.3 million cells/mL.
On the day of the assay, frozen cells were thawed and re-suspended in Re-suspension Media and plated at 40,000 cells/well (in 100 μL volume) in 96 well white plates and were incubated for at least 4 h at 37° C., 5% CO2. After incubation, cells were treated with the compounds to be screened. 10 mM stocks of the compounds were serially diluted 1:10 in 100% DMSO followed by an additional 1:100 dilution in Assay Media. These dilution series were added to the cell plates resulting in a further 1:10 dilution and a final % DMSO of 0.1%. The vehicle control wells also contained this dilution of DMSO and the positive control wells contained […] (DHT) as an AR agonist at final concentration of 0.3 nM in 0.1% DMSO. Cells were incubated for 16-18 hours at 37° C. and 5% CO2. Then the culture media was removed from and the cells were lysed in 20 μL of cell lysis reagent for 5 minutes at room temperature. 50 μL of luciferase reagent was added to each well and luminescence, over 5 seconds, was measured.
EC50 (half maximal effective concentration) was calculated from concentration series plots which generated sigmoidal curves. Xlfit software was used to plot the best fit of the % effect vs concentration and to calculate the EC50.
Reagents and Materials used in the Androgen Receptor-Mediated Transcriptional Assay include the following: • Growth Media—DMEM/high glucose—10% FBS: 500 ml phenol red DMEM/high glucose (Gibco, Grand Island N.Y., cat #10569-010), 10% non heat-inactivated Fetal Bovine Serum (FBS) (Atlanta Biologicals, Norcross Ga., cat #S-12450), 1% Nonessential Amino Acids (Gibco, cat #11140-050), 1% Penicillin-Streptomycin (Gibco, cat #15140-122) • Basal Media—phenol red free DMEM/high glucose (Gibco, cat #31053-028)+1% Na Pyruvate (Gibco, cat #11360-070), 1% Nonessential Amino Acids (Gibco, cat #11140-050), 1% GlutaMAX-I (Gibco, cat #35050-061) • Re-suspension Media—basal media+1% Penicillin-Streptomycin (Gibco, cat #15140-122) • Assay Media—basal media+5% charcoal stripped FBS (HyClone, Logan Utah, Cat #SH30068)+1% Penicillin-Streptomycin (Gibco, cat #15140-122) • Cell Lysis Reagent—Promega, Cat #PAE1531 • Luciferase Reagent—Promega, Cat #PAE1483

Setting [1] is: CV-1 cells transfected with human AR and ARE-luciferase, 16-18 hours incubation, luminescence, read-out: EC50 Values for Compounds 1-22 from Androgen Receptor-Mediated Transcriptional Assay.

Like-named read-outs stand apart in the source and are kept apart here.

A word on the EC50: it is the concentration giving half of the maximal effect. `CCCC1CNS(=O)(=O)N(c2ccc3c(C#N)nccc3c2)C1` (racemic) [Compound 22, 6-(1,1-dioxido-4-propyl-1,2,6-thiadiazinan-2-yl)isoquinoline-1-carbonitrile]: the EC50 under setting [1] was determined as 569 nM.

In the case of `C[C@H]([C@@H](O)C(F)(F)F)N(C)c1ccc2c(C#N)nccc2c1` (single isomer, unassigned) [Compound 26], the EC50 was determined as 0.1 nM.

Regarding `C[C@H]([C@H](O)C(F)(F)F)N(C)c1ccc2c(C#N)nccc2c1` (single isomer, unassigned) [Compound 27], a half-maximal response (EC50) required 12.9 nM.

Take `Cc1cccc(C[C@@H]2CNS(=O)(=O)N(c3ccc4c(C#N)nccc4c3)C2)c1` (single isomer, unassigned) [Compound 15]: the EC50 under setting [1] was 195 nM.

These data come from patent US9328104B2, “Selective androgen receptor modulators” (Pfizer Inc., priority 2012, dated 2016).
